Reference: PubChem BioAssay (NCI)
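Tested at 5 concentrations; 48 h exposure; 96-well plates; endpoints linearly interpolated, else capped at highest concentration. TGI: concentration producing complete growth inhibition.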

What was measured:
Assay in all cases: inhibition of tumour cell growth, NCI panel, 48 h
[1] = system: SF-295 CNS
[2] = system: MOLT-4 leukemia
[3] = system: UACC-62 melanoma
[4] = system: SNB-19 CNS
[5] = system: MDA-MB-231 breast
[6] = system: KM12 colon
[7] = system: MDA-N
[8] = system: HCC-2998 colon
[9] = system: DU-145 prostate
[10] = system: NCI-H460 lung
[11] = system: HOP-92 NSCLC
[12] = system: IGROV1 ovarian
[13] = system: PC-3 prostate
[14] = system: UO-31 renal
[15] = system: MCF7 breast
[16] = system: SR leukemia
[17] = system: SF-539 CNS
[18] = system: SN12C renal
[19] = system: NCI-H226 lung
[20] = system: T-47D breast

SMILES	TGI [1] [µM]	TGI [2] [µM]	TGI [3] [µM]	TGI [4] [µM]	TGI [5] [µM]	TGI [6] [µM]	TGI [7] [µM]	TGI [8] [µM]	TGI [9] [µM]	TGI [10] [µM]	TGI [11] [µM]	TGI [12] [µM]	TGI [13] [µM]	TGI [14] [µM]	TGI [15] [µM]	TGI [16] [µM]	TGI [17] [µM]	TGI [18] [µM]	TGI [19] [µM]	TGI [20] [µM]
CCOC(=O)c1cc(C2CCN(Cc3ccccc3)C2=S)c(C(=O)C=[N+]=[N-])[nH]1 (stereo not drawn)	66.8	> 100	50.7	> 100	> 100	> 100	49.4	> 100	> 100	64.1	> 100	> 100	> 100	57.5	40.4					
CCOC(=O)C1(Br)S(=O)(=O)OCCOS1(=O)=O	> 100	> 100	> 100	> 100				> 100		> 100	> 100	> 100		> 100		> 100	> 100	> 100	> 100	
COC(=O)C1C=CCON2CCc3c(n(S(=O)(=O)c4ccccc4)c4ccccc34)C12 (stereo not drawn)	> 100	> 71	> 62.5	> 77.7		> 55.6		> 100		> 92.3	> 100	> 68.2		> 100		> 100	> 16.2	> 100	> 91.1	
CN(C)c1ccc(/C=C/c2cc(-c3ccccc3)[n+](C)n2-c2ccccc2)cc1	16.2	3.41	> 39.7	11.3	17.2	3.07	13.6	56.4	22.7	> 100	16.6	3.76	3.27	6.66	> 33.3	> 30	29	7.6	71	
COC(=O)C(/C(=N\NC(N)=S)C(=O)Nc1ccccc1[N+](=O)[O-])c1cnc2ccccc2n1 (stereo not drawn)	> 100	> 100	> 100	> 100		> 100		> 100		> 100	> 100	> 100		> 100		> 100	> 100	> 100	> 100	
COc1ccc2nc(NC(=O)C(=O)NNC(=O)c3ccncc3)sc2c1	> 100		> 100	> 100				> 100		> 100	> 100	> 100		> 100			> 100	> 100	> 100	
O=C1CCCc2ccc3c(c21)CC1(Cc2ccccc2C1)C3	> 100		> 100		> 100	> 100	67.2	> 100			50.6	> 100	> 100	> 100	> 100		> 100	> 100	67.3	> 100
COc1cccc(-c2c(-c3ccccc3)[nH]c(C)c2C(=O)ONC(=O)c2ccccc2)c1	7.64	18.2	26.9	23.8	22.9	32.4		27.4	11.8	11.4	4.65	3.18	23.9	3.49	24	15.5	18.4	12.8	30.7	23.9
O=C(C/C=C/c1ccccc1)c1ccccc1	> 100	61.6	26.4			25.6	50.9	33.4	31	60.6	> 100	> 100		28.2	32.7	49.9	56.6	60.9	66.6	42.7
Cc1cccc2c1c(=O)c1c(O)cc(O)cc1n2C	> 100	> 100	> 100	> 100	> 100	> 100	> 100	> 100	> 100	> 100	> 100	> 100	> 100		> 100	> 100	> 100	> 100	> 100	
CC(C)[C@@H](C)[C@@]1(C)C[C@@H]1[C@@H](C)[C@H]1CC[C@@H]([C@@H]2CC=C3C[C@@H](O)CC[C@]3(C)C2=O)[C@]1(C)CCO	21.2	19.3	27.7	25.1	28	13	26.1	16.4	28.7	3.32		29.8	21.8	28.5	22.8	13.3	25.3	25.5	26.8	
O=c1cc(-c2ccccc2)[nH]c2cc(Cl)ccc12	2.07	15.9	11.9	6.44		52.5		4.76		14.8	57.5	> 100		> 100			1.99	82.3	56	
CC1=CCC2CC1NC(=O)CCOCCC(=O)NC2(C)C (stereo not drawn)	> 100	> 100	> 100	> 100	> 100	> 100	> 100	> 100	> 100	> 100	> 100		> 100	> 100	> 100	> 100	> 100	> 100	> 100	
COC(=O)C1(C)NCCc2c1[nH]c1ccccc21 (stereo not drawn)	> 100	> 100	> 100	> 100		> 100		> 100			> 100	> 100		> 100		> 100	> 100	> 100		
N#Cc1ccc(C2NN=CC23C(=O)c2ccccc2OC3c2ccccc2)cc1 (stereo not drawn)	> 100	> 100	> 100	> 100	> 100	> 100		> 100	> 100	> 100		> 100	> 100	96.8	87.4	> 100	> 100	> 100	> 100	
CN(C(=O)c1ccco1)C(=S)N1CCN(c2ccccn2)CC1	> 100	> 100	> 100	> 100		> 100				> 100	> 100	> 100		> 100			> 100	> 100	> 100	
C/C(Cc1ccc2c(c1)OCO2)=N\NC(=O)C(C)Sc1nnc(SC(C)C(=O)N/N=C(\C)Cc2ccc3c(c2)OCO3)s1 (stereo not drawn)	> 100	> 100	> 100	> 100	> 100	> 100	> 100	> 100	> 100	> 100	> 100	> 100	> 100	> 100	> 100				> 100	
COc1cccc(NC(=O)C(=O)C2C=CCS2(=O)=O)c1 (stereo not drawn)	> 100	> 100	> 100	> 100		> 100		> 100		> 100		> 100		> 100		> 100	> 100	> 100	> 100	
COc1ccc(/C(=N\Nc2ccccn2)c2ccccn2)cc1	3.54	> 58.3	6.44	> 63.9	> 74.9	> 32.3	> 100	35.9	> 100	3.08	> 24.3	7.89	> 100	0.629	49.7	> 33.7	6.6	> 100		
CCOC(=O)c1cccnc1C(OC(C)=O)OC(C)=O	> 100	> 100	> 100	> 100		> 100		> 100		> 100	> 100	> 100		> 100		> 100	> 100	> 100	> 100	
CCCN(CCC)C1=Nc2ccccc2-n2cnnc2C1	> 100	> 100	> 100	> 100		> 100				> 100		> 100		> 100		> 100	> 100	> 100	> 100	
C=C1Cc2cc(OC)c(OC)c(OC)c2-c2ccc(SC)c(=O)cc21	4.12	25.2		5.3		< 0.01		0.402		< 0.035	3.7	7.66		6.96		> 100	< 0.01	1.6	0.188	
S=C=NC1CCC(c2cc3ccccc3s2)(N2CCCCC2)CC1 (stereo not drawn)	7.39	1.01	3.6	7.79		3.95	3.73	3.22	4.52	3.54	3.56			3.66	5.72	2.12	3.77	3.77		25.3
COC(=O)C1=C(CCC[C@H](C)O[Si](C)(C)C(C)(C)C)NC(=O)N2[C@@H](CCO)CC[C@H]12	25.1	> 100		29	31.9	51.2			44.4	47.4	28.4	31.8		29.7			31.6	29.2	32.4	32.9
NC(Cc1ccc(B(O)O)cc1)C(=O)NC(CO)CO (stereo not drawn)	> 100	> 100	> 100	> 100	> 100	> 100	> 100	> 100		> 100		> 100	> 100	> 100		> 100	> 100	> 100	> 100	
CCOC(=O)CNc1nnnn1C1OC(CO)C(O)C1O (stereo not drawn)	> 100	> 100	> 100			> 100		> 100		> 100		> 100		> 100			> 100	> 100	> 100	
COc1ccc(-c2cc(=O)c3c(O)cc(O)cc3o2)c(OC)c1OC	> 100		> 100	> 100		> 100		> 100			> 100	> 100					> 100	> 100	> 100	
O=P(O)(CN1CCN(CP(=O)(O)c2ccccc2)CCN(CP(=O)(O)c2ccccc2)CC1)c1ccccc1	> 100	> 100		> 100		> 100	> 100	> 100	> 100	> 100		> 100		> 100	> 100		> 100		> 100	> 100
COc1c2c(cc3c1C(=O)Cc1ccc4c(c1CN(C)CC3)OCO4)OCO2	> 100	> 100	> 100	> 100		> 100		> 100		> 100	> 100	> 100		> 100		> 100	> 100	> 100	> 100	
O=c1c2c(c1=O)-c1ccccc1CN2		> 100	> 100	> 100		> 100		> 100		> 100	> 100	> 100		> 100			> 100	> 100	> 100	
